# Tests used:
# BCWM.1 and MWCL.1 cells [1] = assay: Caspase-9, caspase-3 and PARP cleavage (Western blot, Caspase 3/7 Glo Assay); format: cell-based, human; details: 0.1-10 nM, 24 hours
# Experimental: WM cell lines have been exposed to everolimus (0.1-10 nM) for 24 hours and caspase activation has been assessed using Caspase 3/7 Glo Assay (Promega, Madison, Wis.), according to manufacturer's procedure.
# BCWM.1 cells [2] = assay: Western blot of p-4EBP1 and p-70S6K in BCWM.1 cells cultured with HUVECs; details: 0.01-10 nM, 6 hours
# Experimental: (§2) WM and IgM secreting cell lines were harvested and lysed using lysis buffer (Cell Signaling Technology, Beverly, Mass.) reconstituted with 5 mM NaF, 2 mM Na3VO4, 1 mM PMSF (polymethilsulfonyl fluoride), 5 μg/mL leupeptine, and 5 μg/mL aprotinin. Whole-cell lysates (50 μg/lane) were subjected to sodium dodecyl sulfate-polyacrylamide gel eletrophoresis (SDS-PAGE) and transferred to polyvinyldene fluoride (PVDF) membrane (Bio-Rad Laboratories, Hercules, Calif.). The antibodies used for immunoblotting included: anti-caspase3-, -caspase-9, -PARP, phospho (p)-mTOR, p-p70S6K, p-4EBP1, p-FAK-cyclinD1, -cyclinD2-p27^Kip1, -p21^Cip1, p-Akt, -Akt, pERK, -ERK, p-GSK3, -p-STAT3, -p-p65, -p-p50, -p-IkB, -nucleolin and -tubulin antibodies (Cell Signaling, Danvers, Mass.).
# It was next sought to determine the effect of everolimus on modulating vessel formation. […] The impact of everolimus to target WM cells in presence of endothelial cells was next evaluated at signaling level.
# [3] = tested on: primary peripheral blood-derived CD19+ cells; assay: MTT cytotoxicity on healthy donor cells; format: cell-based, human; details: healthy individuals, 60-1000 nM, 48 hours
# BCWM.1 cells [4] = assay: Transwell migration assay towards SDF-1; format: cell-based, human; details: 0.01-1 nM, 4 hours, 30 nM SDF-1
# Experimental: Transwell migration assay (Costar; Corning, Acton, Mass.) was performed using BCWM.1 cells in the presence or absence of 30 nM SDF-1, as described (Azab A. K., et al., Blood, 114(3):619-29 (2009)).
# (§1) The bone marrow (BM) microenvironment confers growth and induces drug resistance in malignant cells (Mitsiades C. S. et al., Eur. J. Cancer., 42(11):1564-73 (2006)). It was therefore sought to determine the anti-tumor activity of everolimus in the presence of the BM microenvironment. It was first investigated whether everolimus inhibits WM cell growth in the context of the BM milieu. BCWM.1 cells were exposed to everolimus (0.1-10 nM) in the presence or absence of BMSCs for 48 hours. The viability of BMSCs assessed by MTT was not affected by everolimus treatment (data not shown). […] Next, the efficacy of everolimus in affecting migration and adhesion of WM cells was evaluated. […] To study the effect of everolimus on the migration of WM cells, BCWM.1 cells were incubated with everolimus (0.01-1 nM) for 4 hours. […] Cells were then subjected to migration as previously reported (Roccaro A. M. et al., Blood, 113(26):6669-80 (2009)).
# BCWM.1 cells [5] = assay: [3H]-thymidine uptake of BCWM.1 cells in presence of endothelial cells (HUVECs); format: cell-based, human; details: 0.01-10 nM, 48 hours
# [6] = tested on: WM and IgM low-grade lymphoma cells (BCWM.1; MWCL.1; RL); assay: DNA fragmentation (Cell Death Detection ELISA), apoptosis; format: cell-based, human; details: 0.1-10 nM, 24 hours
# Text: Cell Death Detection ELISA (Roche Applied Science, Indianapolis, Ind.) was used to quantify DNA fragmentation, as per the manufacturer's instructions, and as previously described (Sacco A. et al., Clin Cancer Res., 17(7):1753-64 (2011)).
# [7] = tested on: WM and IgM low grade lymphoma cell lines (BCWM.1, MWCL.1 and RL); assay: Adhesion to primary WM bone marrow stromal cells; format: cell-based, human; details: 0.01-1 nM
# Experimental: as §1
# HUVECs = assay: Morphogenesis assay on Matrigel (capillary tubule formation); format: cell-based, human
# Experimental: Unpolymerized Matrigel (17 mg/mL; Becton Dickinson, Mountain View, Calif.) was placed (50 μL/well) in a 96-well microtiter plate (0.32 cm2/well) and polymerized for 1 hour at 37° C. HUVECs and MMECs (5×10^3 per well) in 200 μL of DMEM/10% FCS (positive control), serum-free medium (negative control), as well as in the presence or absence of everolimus (0-0.01-0.1-1-10 nM) were layered onto the Matrigel surface. After 6 hours of incubation in a 5% CO2 humidified atmosphere at 37° C., cell growth and tridimensional organization were observed using a reverted phase-contrast light microscope, as described (Roccaro A. M. et al., Cancer Res., 66(1):184-91 (2006)).
# BCWM.1 cells [8] = details: everolimus 0.5 nM alone, 48 hours
# [9] = tested on: mammalian target of rapamycin (mTOR); assay: Immunohistochemistry of p-4EBP1 and p-S6R in bone marrow biopsies pre- and post-everolimus; format: in vivo, human
# Text: Bone marrow biopsies from WM patients at pretreatment and at the end of therapy were fixed in Zenker's formalin, embedded in paraffin blocks, and sectioned. Sections were stained for phospho(p)-4EBP1 and p-S6R (Cell Signaling Technology, Inc.). Signal quantification for each target was obtained from four different areas, on matched pre- and post-everolimus treatment of 4 patients presenting with partial response; and on matched pre- and post-everolimus treatment of 3 patients presenting with stable disease. Numbers of positive cells were obtained on 4 different fields of the bone marrow biopsy, and average and standard deviation provided, as previously described (Fingar D. C. et al., Mol. Cell. Biol., 24(1):200-16 (2004).
# In contrast, everolimus-dependent modulation of phosphorylated ribosomal protein S6 (phospho(p)-S6R) and p-4EBP1 was not observed in those patients with stable disease (FIG. 9C).
# BCWM.1 cells [10] = assay: MTT cytotoxicity assay; format: cell-based, human
# mTOR = assay: Western blot of p-mTOR, p-p70S6K, p-4EBP1 in BCWM.1 and MWCL.1 cells; format: cell-based, human; details: 0.1-10 nM, 6 hours
# Experimental: as §2
# BCWM.1 cells [11] = assay: Thymidine uptake cell proliferation assay; format: cell-based, human; details: 0.01-40 nM, 48 hours
# BCWM.1 cells [12] = assay: [3H]-TdR uptake of BCWM.1 cells adherent to BMSCs; format: cell-based, human; details: 0.1-10 nM, 48 hours
# Experimental: as §1
# BCWM.1 and MWCL.1 cells [13] = assay: MTT cytotoxicity in miRNA-155 knockdown probe-transfected WM cell lines; format: cell-based, human; details: 0.1-1-10 nM, 48 hours, knockdown probe vs scramble probe
# NF-κB p65 = NF-κB p65 DNA-binding activity (Active Motif TransAM) in nuclear extracts; format: cell-based, human; details: BCWM.1 and MWCL.1; everolimus 1 nM or bortezomib 5 nM, 4 hours; TNF-α 10 ng/mL
# Text: NF-κB activity was investigated using the Active Motif TransAM kits, a DNA-binding enzyme-linked immunosorbent assay (ELISA)-based assay (Active Motif North America, Carlsbad, Calif.).
# WM-WSU, RL, MWCL.1 cells = assay: MTT cytotoxicity on IgM low-grade lymphoma cells; format: cell-based, human; details: 0.01-40 nM, 48 hours
# BCWM.1 cells [14] = assay: Immunoblotting of cyclin D1, cyclin D2, p27Kip1, p21Cip1; format: cell-based, human; details: 0.1-10 nM, 12 hours
# Experimental: as §2
# [15] = tested on: primary WM bone-marrow derived CD19+ cells; assay: MTT cytotoxicity on primary WM cells; format: cell-based, human; details: 0.1-10 nM, 48 hours, 4 patients with relapsed/refractory WM
# Experimental: Next, it was sought to determine the underlying mechanisms that led to everolimus-dependent anti-tumor effect in WM. The activity of everolimus in targeting WM cells was tested in primary WM CD19^+ cells, and WM and IgM secreting lymphoma cell lines (BCWM1; MWCL.1; RL), as well as in normal PBMC-derived CD19^+ cells. […] Everolimus-induced toxicity in WM and IgM secreting lymphoma cell lines was subsequently validated.
# BMSCs = assay: MTT viability of BMSCs; format: cell-based, human; details: 0.1-10 nM, 48 hours
# Experimental: as §1
# BCWM.1 cells [16] = assay: Cell cycle analysis, PI staining and flow cytometry; format: cell-based, human; details: for cells in S phase: 12 hours (control 36.29%); for G1 phase BCWM.1 cells: 12 hours (control 52.52%)
# miRNA-155 = assay: qRT-PCR of miRNA-155 level in WM cell lines; format: cell-based, human; details: BCWM.1; MWCL.1; 0.1-1-10 nM, 12 hours
# Experimental: qRT-PCR for miRNA-155 (TaqMan microRNA Assays, Applied Biosystems, Foster City, Calif.) was performed on an Applied Biosystems AB7500 Real Time PCR system.
# [17] = patients with relapsed or refractory WM, oral; cited from earlier work
# BCWM.1 cells [18] = assay: Antibody-dependent cell-mediated cytotoxicity assay (ADCC); format: cell-based, human; details: E/T ratio of 10:1; rituximab 10 μg/mL, everolimus 1 nM, bortezomib 5 nM
# Experimental: Briefly, interleukin-2 (IL-2; R&D, Minneapolis, Minn.)-activated PBMCs were used as effector cells and calcein-AM-labeled BCWM.1 cell line, as targets. PBMCs were separated from leukopheresis products from healthy donors over Ficoll-Hypaque solution after informed consent. Effector cells were used immediately at 37° C. in RPMI complete media after being activated with IL-2 (100 UI/mL for 36 hours). Target cells were labeled with calcein-AM for 1 hour at 37° C., washed thrice, and plated in triplicate in 96-well plates (5000 cells per well). ADCC was performed in the presence of rituximab (10 μg/mL) or human control IgG1 (2 ng/mL) at various effector-target (E/T) ratios (10:1, 20:1, and 40:1). The 96-well plates were centrifuged at 30 g for 2 minutes at room temperature, followed by a 4-hour incubation at 37° C. Culture supernatants were transferred to a Black ViewPlate-96 plate and read on Wallac VICTOR2 using 492/520 nm filter set (Perkin Elmer). Combinatory studies using everolimus (1 nM), Bortezomib (5 nM) and Rituximab (10 μg/mL) were also performed. This assay was valid only if (mean maximum release−medium control release)/(mean spontaneous release−medium control release) was more than 7. Spontaneous release is the CPM in the supernatant from wells containing target cells alone. Maximum release is the supernatants of wells containing target cells and Triton X-100. […]
compound,measurement,setting,value
"CO[C@H]1C[C@@H]2CC[C@@H](C)[C@@](O)(O2)C(=O)C(=O)N2CCCC[C@H]2C(=O)O[C@H]([C@H](C)C[C@@H]2CC[C@@H](OCCO)[C@H](OC)C2)CC(=O)[C@H](C)/C=C(\C)[C@@H](O)[C@@H](OC)C(=O)[C@H](C)C[C@H](C)/C=C/C=C/C=C/1C [everolimus, 40-O-(2-hydroxyethyl) derivative of sirolimus (rapamycin)]","caspase-9, -3 and PARP cleavage",BCWM.1 and MWCL.1 cells [1],"induced caspase-9, -3 and PARP cleavage in a dose dependent manner"
same,endothelial cell-dependent phosphorylation of 4EBP1 and 70SK in WM cells,BCWM.1 cells [2],inhibited endothelial cell-dependent phosphorylation of 4EBP1 and 70SK
same,cytotoxicity,[3],did not show cytotoxicity
same,migration towards SDF-1,BCWM.1 cells [4],"inhibited WM cell migration towards SDF-1, in a dose-dependent manner"
same,migration towards SDF-1,BCWM.1 cells [4]; listed as Everolimus,inhibited SDF-1-induced migration
same,WM cell proliferation in presence of endothelial cells,BCWM.1 cells [5],"reduced WM cell proliferation, despite the presence of endothelial cells"
same,apoptosis (DNA fragmentation),[6],induced apoptosis in a dose-dependent manner
same,cell adhesion to primary WM bone marrow stromal cells,[7],inhibited WM cell adhesion in a dose-dependent manner
same,capillary formation,HUVECs; 1 nM everolimus,almost complete inhibition of capillary formation
same,endothelial cell morphogenesis on Matrigel,HUVECs; 0.01-10 nM,inhibited endothelial cell morphogenesis on Matrigel in a dose-dependent manner
same,"cytotoxicity, % of BCWM.1 cells",BCWM.1 cells [8],24%
same,phosphorylation of S6R and 4EBP1 in bone marrow biopsies,"[9]; patients with partial response, pre- vs post-everolimus",inhibition of phosphorylation
same,modulation of p-S6R and p-4EBP1 in bone marrow biopsies,[9]; patients with stable disease,not observed
same,cytotoxicity at doses used for migration,"BCWM.1 cells [10]; 0.01-1 nM, 4 hours",did not induce cytotoxicity
same,cytotoxicity,"BCWM.1 cells [10]; 0.01-40 nM, 48 hours",inducing cytotoxicity in a dose-dependent manner
same,"p-mTOR, p-p70S6K and p-4EBP1",mTOR,inhibition
same,cell proliferation,BCWM.1 cells [11],inhibiting cell proliferation
same,BMSC-triggered proliferation of BCWM.1 cells,BCWM.1 cells [12],inhibited by everolimus in a dose-dependent manner
same,everolimus-dependent induction of toxicity after miRNA155 knock down,BCWM.1 and MWCL.1 cells [13],partially inhibited by knocking down miRNA155
same,"TNF-α-induced NF-κB recruitment to the nucleus, single agents",NF-κB p65,similarly inhibited
same,cytotoxicity,"WM-WSU, RL, MWCL.1 cells",induction of cytotoxicity was validated
same,cyclin D1 and cyclin D2,BCWM.1 cells [14],down-regulation
same,"cyclin kinase inhibitor proteins p27Kip1, p21Cip1",BCWM.1 cells [14],up-regulation
same,cytotoxic effect,[15],significantly induced toxicity in all the 4 samples
same,viability of BMSCs,BMSCs,not affected
same,cells in S phase,BCWM.1 cells [16]; 0.1 nM everolimus,29.14%
same,G1 phase BCWM.1 cells,BCWM.1 cells [16]; 0.1 nM everolimus,61.25%
same,cells in S phase,BCWM.1 cells [16]; 1 nM everolimus,21.71%
same,G1 phase BCWM.1 cells,BCWM.1 cells [16]; 1 nM everolimus,70.98%
same,cell cycle progression,"BCWM.1 cells [16]; 0.1-10 nM, 12 hours",cell cycle arrest
same,miRNA155 level,miRNA-155,inhibited miRNA155 level in a dose-dependent manner
same,minor response,[17],28%
same,overall response rate,[17],70%
same,partial response (PR),[17],42%
"rituximab: the anti-CD20 antibody, rituximab",specific lysis,BCWM.1 cells [18],37.7%

# — US9944991B2, “Compositions and methods for diagnosis, prognosis and treatment of hematological malignancies” (Dana-Farber Cancer Institute, Inc., priority 2012, dated 2018)
